Structures can show the parent of a compound that is named as a salt.
What was measured:
human sperm motility = assay: Sperm motility assessment by CASA after PDEi treatment (screening of 43 PDEi); assay type: cell-based; conditions: for Effect on Sperm Motility: Mild / Effect on Sperm Motility: Strong: X or (X) marks the class, PDEi tested blinded at 1, 10 and 100 μM, 20 min at 37° C., CASA
Protocol: Almost all phosphodiesterase inhibitors (PDEi) were purchased from Tocris Bioscience (Bristol, UK) and the other inhibitors from Sigma-Aldrich (Dorset, UK) or Santa Cruz Biotechnology (Heidelberg, Germany) by the Drug Discovery Unit (DDU) at the College Life Sciences (University of Dundee, UK) as shown in Table 1. The DDU coded the PDEi upon arrival and the coded samples were tested for sperm function with a primary focus on sperm motility. All 43 PDEi were analyzed blinded with three independent times for quantitative sperm motility using three different final concentrations (1, 10 and 100 μM).
All chemicals were purchased from Sigma-Aldrich. Two different media were used 1-medium not supporting sperm capacitation NCM: 1.8 mM CaCl2, 5.4 mM KCl, 0.8 mM MgSO4.7H2O, 116.3 mM NaCl, 1.0 mM NaH2PO4, 5.55 mM D-glucose, 2.73 mM sodium pyruvate, 41.75 mM sodium lactate, 25 mM HEPES and 2-supporting capacitation CM: 1.8 mM CaCl2, 5.4 mM KCl, 0.8 mM MgSO4.7H2O, 116.3 mM NaCl, 1.0 mM NaH2PO4, 5.55 mM D-glucose, 2.73 mM sodium pyruvate, 25 mM sodium lactate, 26 mM sodium bicarbonate. Semen samples were obtained from healthy donors (normozoospermic) and samples were produced by masturbation into a sterile plastic container after 2-3 days of sexual abstinence. Two different sperm populations were isolated from the semen using a 40-80% discontinuous density gradient procedure. Briefly, 1 ml of semen was loaded after 30 min of liquefaction at 37° C. on the top of a colloidal silica suspension (Pure Sperm™, Nidacon, Mölndal, Sweden) made of 80% and 40% layered (2 ml each). The density gradient was centrifuged at 300×g for 20 min at room temperature. The motile population was found at the bottom of the 80% fraction and the poor motility population was recovered at the interface of 40-80%, respectively called 80% and 40% fraction. Both fractions were washed using a NCM, cells were isolated by a centrifugation for 5 min at 500×g and the sperm pellet was rediluted using a NCM or CM at ˜20-25×10^6 cells/ml. Sperm cells from 3-4 different donors were pooled together after sperm preparation in order to obtain enough cells to screen 4-5 PDEi at the same time and additionally to reduced the variability. The first screening was performed with a NCM because it is the conditions normally used in clinic for intrauterine insemination (IUI). Accordingly, NCM is recommended to prevent capacitation before IUI (Björndahl et al., 2010)
Following isolation, sperm were mixed with DMSO (vehicle; 1% final concentration) or PDEi [all inhibitors were reconstituted into 1% DMSO]. Sperm cells were incubated for 20 min at 37° C. and the sperm motility was evaluated by using a Computer-Assisted-Sperm-Analysis (CASA, Ceros system [version 12]; Hamilton Thorne, Beverly, Mass.) and 4 chamber slides […] (Vitrolife, Sweden). Sperm motility was evaluated from 4 samples per treatment and at least 2,000 sperm cells were analyzed in total (see below). The setting of the CASA used was that established by the manufacturer for human spermatozoa.

[1] = test system: poor sperm motility population; assay: Sperm penetration assay in 1% methyl cellulose; assay type: cell-based, human; conditions: PDEi 100 μM, 20 minutes, scored at 1 cm distance, n=6 (FIG. 4)
Protocol: Methyl cellulose (1% concentration) was used to mimic cervical mucus viscosity and act as a sperm function test (Ivic et al., 2002). Sperm cells were previously treated with PDEi as described above. Glass tubes (5 cm×0.8 cm×2 mm; Vitrocom, NJ, USA) were loaded with methyl cellulose by capillary action (4,000 Sigma M-) prepared in NCM and one extremity was sealed with Cristaseal™ (Hawksley, Sussex, UK). The tubes was incubated with the sperm cells at 37° C. for 1 h 15 min, then the other extremity of the tube was sealed and the number of sperm cells scored at 1 cm and 2 cm using the CASA equipped with a 20× objective magnification. The microscope was adjusted to get the right focus manually at all planes to get the sum of the sperm migrated at this distance. The results are expressed as a penetration index calculated as the number of spermatozoa observed at the site of counting with treatment/the number of spermatozoa without treatment. The speed of sperm population at the migration distance was also analyzed.

SMILES	Effect on Sperm Motility: Mild (human sperm motility)	enhancement of sperm motility in a viscous solution (sperm penetration assay) [1]	further results
CCCCCC[C@@H]([C@@H](C)O)n1cnc2c(N)ncnc21.Cl [EHNA hydrochloride]	(X)	–	–
Cc1ccc([N+](=O)[O-])cc1S(=O)(=O)N(C)C [BRL 50481]	(X)	–	–
COc1ccc(Cc2nccc3cc(OC)c(OC)cc23)cc1OC [Papaverine]	–	best PDEI's to enhance sperm motility in a viscous solution	effect upon sperm motility (human sperm motility): greater than expected effect upon sperm motility
Cl.Cl.Nc1nc(-c2ccc(Cl)c(Cl)c2)c(-c2ccncc2)s1 [CGH 2466 dihydrochloride]	(X)	–	–
CC(C)C(=O)c1c(C(C)C)nn2ccccc12 [Ibudilast, 2-methyl-1-(2-propan-2-ylpyrazolo[1,5-a]pyridin-3-yl)propan-1-one]	–	best PDEI's to enhance sperm motility in a viscous solution	–
CCC1C(C)=NN=C(c2ccc(OC)c(OC)c2)c2cc(OC)c(OC)cc21 (centres unmarked) [Tofisopam, 1-(3,4-dimethoxyphenyl)-5-ethyl-7,8-dimethoxy-4-methyl-5H-2,3-benzodiazepine]	–	best PDEI's to enhance sperm motility in a viscous solution	effect upon sperm motility (human sperm motility): greater than expected effect upon sperm motility
CN(C(=O)CCCOc1ccc2[nH]c(=O)ccc2c1)C1CCCCC1 [Cilostamide]	–	–	Effect on Sperm Motility: Strong (human sperm motility): (X)
CCOC(=O)C1=C[C@]2(CC)CCCN3CCc4c(n1c1ccccc41)[C@@H]32 [Vinpocetine]	(X)	–	–
COc1cc2c(cc1OC)-c1c/c(=N\c3c(C)cc(C)cc3C)n(C)c(=O)n1CC2 [Trequinsin hydrochloride]	–	–	Effect on Sperm Motility: Strong (human sperm motility): (X)
